{"source": "paper PMC8710297", "about": "“Identification of potent SENP1 inhibitors that inactivate SENP1/JAK2/STAT signaling pathway and overcome platinum drug resistance in ovarian cancer” (Clinical and Translational Medicine, 2021)", "molecular_target": "T1, SENP1 (Homo sapiens, UniProt Q9P0U3)", "T1 sequence (Q9P0U3 1-644)": "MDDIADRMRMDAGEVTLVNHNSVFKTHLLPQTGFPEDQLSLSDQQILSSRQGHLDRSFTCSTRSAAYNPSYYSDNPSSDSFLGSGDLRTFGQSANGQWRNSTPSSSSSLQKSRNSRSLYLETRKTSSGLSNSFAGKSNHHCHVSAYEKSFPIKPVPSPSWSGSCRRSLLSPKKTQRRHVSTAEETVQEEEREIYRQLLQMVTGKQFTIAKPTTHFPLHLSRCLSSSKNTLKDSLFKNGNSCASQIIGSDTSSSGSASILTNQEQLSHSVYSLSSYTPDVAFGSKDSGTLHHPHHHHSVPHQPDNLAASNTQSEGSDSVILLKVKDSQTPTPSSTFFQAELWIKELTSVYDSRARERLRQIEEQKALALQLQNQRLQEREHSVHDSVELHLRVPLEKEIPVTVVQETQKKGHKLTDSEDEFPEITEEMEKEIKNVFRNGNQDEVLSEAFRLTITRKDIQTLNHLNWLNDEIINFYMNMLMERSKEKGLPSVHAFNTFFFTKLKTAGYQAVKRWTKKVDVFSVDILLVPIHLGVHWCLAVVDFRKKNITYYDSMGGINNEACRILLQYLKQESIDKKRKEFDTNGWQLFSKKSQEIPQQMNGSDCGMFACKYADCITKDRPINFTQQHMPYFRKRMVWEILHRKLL", "test": "In vitro (cell-free) thermal shift assay", "assay_type": "binding", "set-up": "made in house", "details": "purified SENP1, 4 h, higher temperatures", "experimental": "FIGURE 2 UA directly interacts with Sentrin‐specific protease 1 (SENP1). (A) Cellular thermal shift assay to examine the interaction of UA with SENP1. IGROV1 CR cells pretreated with MG132 (10 μM, 1 h) were incubated with DMSO or UA for 4 h before being shifted to indicated temperatures. SENP1 stability was analyzed by using Western blot against SENP1 antibody. Right panel, quantification of non‐denatured SENP1 fraction shown in the left panel. (B) Cell‐free thermal shift assay to examine interactions of UA with SENP1. Purified SENP1 proteins were incubated with DMSO or UA for 4 h before being shifted to the indicated temperatures. SENP1 stability was analyzed by using Western blot against SENP1 antibody. Right panel, quantification of non‐denatured SENP1 fraction shown in the left panel. (C) The predicted docking pose of UA (C: green; H: white; O: red) at the hydrophobic catalytic cleft of SENP1 (C: salmon; H: white; O: red; N: blue). Key amino acid residues were highlighted. […] Stability of SENP1(C603A) was analyzed by using Western blot against SENP1 antibody. […] Left; Ultra‐high performance liquid‐chromatography‐MS/MS analyses of associated UA in indicated samples, right; quantification of data shown in left (the binding affinity of UA with SENP1‐C603A was normalized as 1). […]\nThe qu anti ficatio n of immunohistochemical sta in ing wa s scored blindly at lea st by two independent obser vers. […]"}
{"smiles": "C[C@H]1[C@H](C)CC[C@]2(C(=O)O)CC[C@]3(C)C(=CC[C@@H]4[C@@]5(C)CC[C@H](O)C(C)(C)[C@@H]5CC[C@]43C)[C@H]12", "note": "[UA, ursolic acid, reference compound]", "values": [{"measurement": "thermal stabilization of recombinant SENP1 in vitro", "value": "stabilized"}]}
